Experimental data taken from US20040038369A1, “Airway-specific trypsin-like enzymes and method of using the same” (priority 2000, published 2004).

Experiments:
[1] = test system: IL-8 promoter; assay: IL-8 promoter luciferase reporter assay in BEAS-2B; type: cell-based, human; conditions: HAST 300 mU/mL, 3 hours
Procedure: About 1.5 Kb and 162 bp of the promoter domains (Mukaida N. et al., J. Immunol., 143: 1366-1371, 1989) of IL-8 were cloned with LA-PCR (produced by Takara Shuzo Co.) using human genome DNA as a template, a forward primer: IL8-1481; […], a forward primer: IL8-162; […], a reverse primer: IL8LUC-R; […]. The PCR was carried out at 98° C. for 20 sec, at 58° C. for one minute and at 68° C. for 5 minutes in 25 cycles. The obtained DNA fragments of the promoter domains of about 1.5 Kb and about 0.25 Kb were named IL8-1481 and IL8-162, respectively.
A DNA fragment containing from ATG (translation-starting codon) to NarI site in the luciferase gene of pGL3-Basic (produced by Promega Corp.) was amplified by a PCR method using a forward primer: IL8LUC-F; […] and a reverse primer: LUC2087R; […]. This luciferase gene N-terminal DNA fragment was ligated to the IL8-1481 and the IL8-162 by a PCR method to obtain the PCR fragments IL8-1481-Luc (about 2 Kb) and IL8-162-Luc (about 800 bp). […]
The luciferase activity was assayed with Pica Gene Dual•Renilla reniformis (produced by Toyo Ink Co.,). […] First, 100 μL of Pica Gene luminescent reagent II was added, and the luminescence due to the firefly luciferase was assayed with a luminometer (LUMINOUS CT-9000D (produced by DIA-IATRON Corp.)). […]

[2] = molecular target: T1, PAR-4 (Homo sapiens, UniProt Q96RI0); assay: Calcium influx in PAR-4-expressing insect cells; type: cell-based; conditions: AST 2 units/ml; trypsin, thrombin 0.1 to 10 units/mL
T1 construct: expressed in transfected cells; host or cells: Sf9 insect cells infected with recombinant baculovirus VL-PAR (pVL1393)
T1 sequence (Q96RI0 18-385): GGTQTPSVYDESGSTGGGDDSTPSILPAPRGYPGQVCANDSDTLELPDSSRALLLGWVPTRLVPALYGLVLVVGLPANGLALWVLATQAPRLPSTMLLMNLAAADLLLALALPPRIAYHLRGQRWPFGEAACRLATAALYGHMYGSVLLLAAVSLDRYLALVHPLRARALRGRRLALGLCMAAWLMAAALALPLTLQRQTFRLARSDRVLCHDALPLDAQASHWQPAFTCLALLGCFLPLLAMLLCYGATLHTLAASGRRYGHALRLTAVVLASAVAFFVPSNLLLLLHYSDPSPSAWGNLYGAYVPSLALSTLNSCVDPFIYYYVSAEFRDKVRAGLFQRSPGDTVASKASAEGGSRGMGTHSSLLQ
Procedure: The above-obtained recombinant baculovirus VL-PAR for expressing the PAR was used to infect 1.0×10^7 Sf9 cells sowed on a 75 cm^2 flask at an MOI=2, and was then left and stationally cultured at 27° C. for 40 hours. After the culture, the infected cells were recovered and then subjected to a calcium influx experiment to-confirm the function of the PAR.
The recovered infected cells (about 5×10^6 cells) were once washed with HEPES-Tyrode buffer solution-Ca^2+ (−) pH 7.4, and then suspended in 5 mL of HEPES-Tyrode buffer solution (containing Fura2-AM, 1 μg/mL) to load the Fura2-AM on the cells at 27° C. for 30 minutes. The suspension was centrifuged at 800 rpm at room temperature for 5 minutes to recover the cells. The cells were twice washed with HEPES-Tyrode buffer solution-Ca^2+ (−) pH 7.4 and then resuspended in 5 mL of HEPES-Tyrode buffer solution-Ca^2+ (−) pH 7.4. The cell suspension was mixed with 5 μL of 1M CaCl2 to give a final concentration of 1 mM CaCl2, and then incubated in a shaded state at room temperature for 5 minutes. The prepared Fura2-AM-loaded infected cells were dispensed into a 96 well plate in a volume of 100 μL/well, further subjected to the dispensation of HEPES-Tyrode buffer solution-C^2+ (+) pH 7.4 in a volume of 80 μL/well, and then assayed with a Fluorescence Drug Screening System (made by Hamamatsu Photonics Co.). […]

Substance: HAST: human airway-specific trypsin-like enzyme; propeptide moiety bound to trypsin-like protein moiety via a disulfide bond
- production of the IL-8 at a transcription level (reporter activity) [1]: promoted
- Ca2+ influx [2]: observed
